Results on one substance are retold here after US5242900A (priority 1991, dated 1993).

The subject of data set [1] is pancreatectomized dogs. The data set can be described thus: Subcutaneous studies in pancreatectomized (diabetic) dogs: plasma glucose. The format is in vivo.
Description: (§1) Nine dogs of initially normal body weight were studied in accordance with Institutional Guidelines for animal experiments. Exteriorized, indwelling catheters were placed for intra-portal insulin administration and peripheral venous blood sampling. All were studied initially as normals. Subsequently all were pancreatectomized; five were autografted and the remaining four were treated pharmacologically both with the modified insulins described above in Example 1 and the corresponding unmodified conventional extracted insulins. Small venous blood samples were drawn via the indwelling blood sampling catheter at 30-60 minute intervals for plasma glucose determination in the subcutaneous experiments and at -10,0,3,6,10,20,30,60 minutes in the intravenous experiments. […] All animals were conscious and ambulatory during the studies.
At the conclusion of experimental protocols, it was verified that all nine of the animals were diabetic by extirpating the grafts (from the transplant recipients) or withdrawing insulin therapy (from the pancreatectomized animals).
(§2) Plasma glucose was determined using a glucose analyzer (Beckman Instruments, Fullerton, CA). IRI was assayed using porcine insulin standard and ^125 I porcine insulin tracer (Novo Research Institute, Gentofte, Denmark), antiserum and a dextran-coated charcoal separation technique (Albisser et al, Diabetes 35:97-100, 1986). In the studies using porcine phosphorylated insulin, the above assay was performed as for porcine insulin, but using equimolar standards of phosphorylated insulin. Parallel standard curves were obtained. […] All values were expressed as mean ±SEM unless otherwise indicated.
Subsequent to pancreatectomy the animals were studied repeatedly, now in the post-absorptive, hyperglycemic state of 14-20 mM, because the conventional insulin depot administered the previous day had become depleted.
The subject of data set [2] is normal dog. It counts as in vivo.
Description: as §1, §2

In the case of “phosphorylated insulin: porcine insulin chemically phosphorylated with POCl3/phosphoric acid in DMF; 3 or 5 negatively charged adducts; about 5-10% unmodified”, in data set [1] (dog, in vivo, sc), the early hypoglycemia entry is on record as “never occurred” and the “lipo-genesis (fat-like deposits) in the areas of repeated subcutaneous injections” value was “palpable fat-like deposits”. The same substance gave a time euglycemia maintained in data set [1] (fasted pancreatectomized dog, starting 14-20 mM, subcutaneous, 30-150 nMol) of 2 to 6 h. In addition, in data set [1] (pancreatectomized dog, subcutaneous, 4-fold larger doses), the “glucose lowering effect at larger dose” value is “occurred more rapidly and lasted longer”. The “plasma glucose lowered to” value in data set [1] (pancreatectomized dog, subcutaneous, approximately 4 nMol/kg) fell in the range of 4.5 to 6.0 mM. Also, the “plasma glucose with repeated injections” value in data set [1] (pancreatectomized dog, subcutaneous, smaller dosage repeated at 6-8h intervals) was “maintain plasma glucose in the range normal for postabsorptive dogs”. Also, the “body weight regained after loss following pancreatectomy” value in data set [1] (pancreatectomized dogs) was in the range of 1 to 3 kg. For the same substance, the “first pass extraction by the liver compared with insulin” value in data set [2] (dog, in vivo) is “not extracted to the same extent”. In addition, in data set [2] (normal dog, intra-portal, 2-fold larger dose), the hypoglycemic effect entry was “without major hypoglycemic effect”. In addition, the “drop in blood glucose” value in data set [2] (normal dog, intra-portal, at 15 minutes) is listed as 0.2 mM. The “decrease in plasma glucose” value in data set [2] (normal dog, intra-portal, double dosage) is on record as “about 0.5 mM”.
